Results: patent publication US10087156B2, “Methods and compositions related to retinoid receptor-selective pathway” (Sanford Burnham Prebys Medical Discovery Institute, priority 2010, dated 2018)

Experiments:
COX = details: Haanen, 2001; cited from earlier work
HepG2 liver cancer cells = assay: PARP cleavage and caspase-8 activation with TNFα by immunoblotting; assay type: cell-based; details: HepG2 cells, SR11237 1 μM, 1 hr pretreatment
Description: ZR-75-1 cells were treated with TNFα and/or Sulindac (75 μM) or K-80003 (50 μM) for 6 hr and analyzed by immunoblotting.
HepG2 cells cultured in medium with 1% FBS were treated with SR11237 (1 μM) for 1 hr, then TNFα (10 ng/ml) and/or Sulindac (75 μM) for 4 hr, and analyzed by immunoblotting. HepG2 cells transfected with control or RXRα siRNA were treated with TNFα and/or Sulindac and analyzed by immunoblotting.

Q: Which COX-inhibiting activity (COX) does the source give for CC1=C(CC(=O)O)c2cc(F)ccc2/C1=C\c1ccc(S(C)(=O)=O)cc1 [sulindac sulfone] here?
A: no COX-inhibiting activity

Q: With CC1=C(CC(=O)O)c2cc(F)ccc2/C1=C/c1ccc([S+](C)[O-])cc1 (stereo not drawn) [sulindac sulfoxide] as the molecule, how does the COX-inhibiting activity (COX) read?
A: no COX-inhibiting activity

Q: With CC1(C)CCC(C)(C)c2cc(C3(c4ccc(C(=O)O)cc4)OCCO3)ccc21 [SR11237] as the molecule, how does the “suppression of the apoptotic effect of Sulindac/TNFα combination” value (HepG2 liver cancer cells) read?
A: partially suppressed
